# According to patent publication US7256182B2, “Gene delivery compositions and methods” (priority 1997, dated 2007):
# Test system: cardiac myocytes of acutely explanted rabbit heart
# Test: Adenovirus gene transfer in Langendorff-perfused explanted rabbit heart; β-galactosidase staining of isolated myocytes
# Method: Adenovirus vectors. Adβgal contained the E. coli lac Z gene driven by the human cytomegalovirus (CMV) immediate early promoter. Virus stocks were expanded as previously described in Graham F L, Prevec L: Manipulation of adenovirus vectors, in Murray E J (ed): Methods in molecular biology. Clifton, N.J., Humana, 1991, pp 109-128, aliquoted in small volumes, and stored in phosphate-buffered saline (PBS) with 10% sucrose at −80° C. Viral titers were determined by the average of two plaque assays performed using a traditional method as described in Methods in molecular biology, supra.
# Statistical Analysis. Unless otherwise stated, all experiments were performed in triplicate and the data are presented as mean ±s.d. Statistical significance was determined at the 5% level using the unpaired Student's t-test.
# Baseline conditions for the Langendorff-perfusion experiments included a coronary flow rate of 30 ml/min, and perfusion with Krebs solution containing 1.0 mmol/L Ca^2+ and 1.0×10^8 pfu/ml of Adβgal at 37° C. All infections occurred in Krebs solution.
# Acutely explanted rabbit heart (New Zealand White; 2-3 kg total body weight) were employed for gene transfer tests of this Example 1 and the following Example 2. The rabbits received heparin anticoagulation (1000 units IV) prior to pentobarbital (50 mg/kg IV). […]
smiles,measurement,setting,value
NCCc1c[nH]c2ccc(O)cc12 [serotonin],change in percentage of infected myocytes by supplemental agent,"agent perfused to enhance microvascular permeability, versus baseline",significant increase
same,percentage of infected myocytes,"pretreatment 500 ml normal Krebs with 10^-5 M agent over 15 minutes, agent also present during Adβgal infection",77.8±2.3%
